Activity calls are given as the source filed them. The rule behind the calls is not given here.
Columns and labels:
[1] = tested on: Mus musculus; assay: Analgesic activity against formalin-induced inflammatory pain-like behaviour ICR mouse model assessed as inhibition of hind paw licking behaviour at 50 mg/kg, ip administered 60 mins prior to formalin challenge and measured after 10 to 40 mins by formalin test; format: functional; details: time 70-100 min
[2] = tested on: Mus musculus; assay: Analgesic activity against formalin-induced inflammatory pain-like behaviour ICR mouse model assessed as inhibition of hind paw licking behaviour at 12.5 to 50 mg/kg, ip administered 60 mins prior to formalin challenge and measured after 10 to 40 mins by formalin test; format: functional, organism-based; details: dose 12.5-50 mg/kg, time 70-100 min, DDE = dose-dependent effect
[3] = tested on: Mus musculus; assay: Anti-inflammatory activity against LPS-induced inflammatory pain-like behaviour ICR mouse model assessed as improvement in locomotor activity by measuring increased mobile behaviours at 50 mg/kg, ip treated with LPS for 2 hrs followed by drug administration for 1 hr and measured for 5 mins by LABORAS analysis; format: functional, organism-based; details: time 65.0 min
[4] = tested on: Mus musculus; assay: Anti-inflammatory activity against LPS-induced inflammatory pain-like behaviour ICR mouse model assessed as improvement in locomotor activity by measuring increase in animal's movement speed in LABORAS arena at 50 mg/kg, ip treated with LPS for 2 hrs followed by drug administration for 1 hr and measured for 5 mins by LABORAS analysis; format: functional, organism-based; details: time 65.0 min
[5] = tested on: Mus musculus; assay: Anti-inflammatory activity against LPS-induced inflammatory pain-like behaviour ICR mouse model assessed as improvement in locomotor activity by measuring increase in distance travelled in LABORAS arena at 50 mg/kg, ip treated with LPS for 2 hrs followed by drug administration for 1 hr and measured for 5 mins by LABORAS analysis; format: functional, organism-based; details: time 65.0 min
[6] = tested on: Mus musculus; assay: Anti-inflammatory activity against LPS-induced inflammatory pain-like behaviour ICR mouse model assessed as improvement in locomotor activity by measuring decrease in immobility behaviour at 50 mg/kg, ip treated with LPS for 2 hrs followed by drug administration for 1 hr and measured for 5 mins by LABORAS analysis; format: functional, organism-based; details: time 65.0 min
[7] = tested on: Mus musculus; assay: Anti-inflammatory activity against LPS-induced inflammatory pain-like behaviour ICR mouse model assessed as reduction in TNF-alpha levels in plasma at 50 mg/kg, ip treated with LPS for 2 hrs followed by drug administration for 1 hr by ELISA; format: functional, organism-based
[8] = tested on: Mus musculus; assay: Anti-inflammatory activity against LPS-induced inflammatory pain-like behaviour ICR mouse model assessed as reduction in IL-6 levels in plasma at 50 mg/kg, ip treated with LPS for 2 hrs followed by drug administration for 1 hr by ELISA; format: functional, organism-based
[9] = tested on: RAW264.7; assay: Cytotoxicity against mouse RAW264.7 cells assessed as reduction in cell viability at 100 uM incubated for 24 hrs by MTT assay; format: toxicity, cell-based; details: raw264.7, 24 h
[10] = tested on: BV-2; assay: Cytotoxicity against […] cells assessed as reduction in cell viability at 100 uM incubated for 24 hrs by MTT assay; format: toxicity, cell-based; details: mouse, bv-2, 24 h
[11] = tested on: RAW264.7; assay: Anti-inflammartory activity in mouse RAW264.7 cells assessed as inhibition of LPS-induced NO production pretreated with compound for 1 hr followed by incubation with LPS for 12 hrs by Griess reagent based analysis; format: functional, cell-based; details: dose 12.5-50 µM, time 13.0 hrs, DDE = dose-dependent effect
[12] = tested on: RAW264.7; assay: Anti-inflammartory activity against LPS-activated mouse RAW264.7 cells assessed as reduction in TNF-alpha levels pretreated with compound for 1 hr followed by incubation with LPS for 12 hrs by ELISA; format: functional, cell-based; details: dose 12.5-50 µM, time 13.0 hrs, DDE = dose-dependent effect
[13] = CNS toxicity in naive ICR mouse assessed as motor coordination at 50 mg/kg, ip measured after 240 mins by rotarod test; format: organism-based; details: in vivo, 4 h
[14] = tested on: RAW264.7; assay: Anti-inflammartory activity against LPS-activated mouse RAW264.7 cells assessed as reduction in IL-6 levels pretreated with compound for 1 hr followed by incubation with LPS for 12 hrs by ELISA; format: functional, cell-based; details: dose 12.5-50 µM, time 13.0 hrs, DDE = dose-dependent effect
[15] = tested on: BV-2; assay: Anti-inflammatory activity in […] cells assessed as inhibition of LPS-induced NO production pretreated with compound for 1 hr followed by coincubation with LPS for 24 hrs by Griess reagent based analysis; format: functional, cell-based; details: Mus musculus, dose 12.5-50 µM, time 25.0 hrs, DDE = dose-dependent effect
[16] = tested on: BV-2; assay: Anti-inflammartory activity against LPS-activated […] cells assessed as reduction in TNF-alpha levels pretreated with compound for 1 hr followed by co-incubation with LPS for 24 hrs by ELISA; format: functional, cell-based; details: Mus musculus, dose 12.5-50 µM, time 25.0 hrs, DDE = dose-dependent effect
[17] = tested on: BV-2; assay: Anti-inflammartory activity against LPS-activated […] cells assessed as reduction in IL-6 levels pretreated with compound for 1 hr followed by co-incubation with LPS for 24 hrs by ELISA; format: functional, cell-based; details: Mus musculus, dose 12.5-50 µM, time 25.0 hrs, DDE = dose-dependent effect
[18] = CNS toxicity in naive ICR mouse assessed as spontaneous locomotor activity by measuring climbing behaviour at 50 mg/kg, ip and measured for 30 mins by LABORAS automated behavioral analysis; format: organism-based; details: in vivo, 0.5 h
[19] = CNS toxicity in naive ICR mouse assessed as spontaneous locomotor activity at 50 mg/kg, ip and measured for 30 mins by LABORAS automated behavioral analysis; format: organism-based; details: in vivo, 0.5 h
[20] = CNS toxicity in naive ICR mouse assessed as spontaneous locomotor activity by measuring immobility behaviour at 50 mg/kg, ip and measured for 30 mins by LABORAS automated behavioral analysis; format: organism-based; details: in vivo, 0.5 h
[21] = CNS toxicity in naive ICR mouse assessed as spontaneous locomotor activity by measuring rearing behaviour at 50 mg/kg, ip and measured for 30 mins by LABORAS automated behavioral analysis; format: organism-based; details: in vivo, 0.5 h
[22] = CNS toxicity in naive ICR mouse assessed as spontaneous locomotor activity by measuring animal's movement speed in arena at 50 mg/kg, ip and measured for 30 mins by LABORAS automated behavioral analysis; format: organism-based; details: in vivo, 0.5 h
[23] = CNS toxicity in naive ICR mouse assessed as spontaneous locomotor activity by measuring distance travelled in arena at 50 mg/kg, ip and measured for 30 mins by LABORAS automated behavioral analysis; format: organism-based; details: in vivo, 0.5 h
[24] = Toxicity in naive ICR mouse assessed as effect on food intake at 50 mg/kg, ip measured after 24 hrs; format: organism-based; details: in vivo
[25] = CNS toxicity in naive ICR mouse assessed as spontaneous locomotor activity by measuring climbing behaviour at 50 mg/kg, ip and measured for 2 hrs by LABORAS automated behavioral analysis; format: organism-based; details: in vivo
[26] = CNS toxicity in naive ICR mouse assessed as spontaneous locomotor activity at 50 mg/kg, ip and measured for 2 hrs by LABORAS automated behavioral analysis; format: organism-based; details: in vivo
[27] = CNS toxicity in naive ICR mouse assessed as spontaneous locomotor activity by measuring immobility behaviour at 50 mg/kg, ip and measured for 2 hrs by LABORAS automated behavioral analysis; format: organism-based; details: in vivo
[28] = CNS toxicity in naive ICR mouse assessed as spontaneous locomotor activity by measuring rearing behaviour at 50 mg/kg, ip and measured for 2 hrs by LABORAS automated behavioral analysis; format: organism-based; details: in vivo
[29] = CNS toxicity in naive ICR mouse assessed as spontaneous locomotor activity by measuring anaimal's movement speed in arena at 50 mg/kg, ip and measured for 2 hrs by LABORAS automated behavioral analysis; format: organism-based; details: in vivo
[30] = CNS toxicity in naive ICR mouse assessed as spontaneous locomotor activity by measuring distance travelled in arena at 50 mg/kg, ip and measured for 2 hrs by LABORAS automated behavioral analysis; format: organism-based; details: in vivo
[31] = Toxicity in naive ICR mouse assessed as effect on body weight at 50 mg/kg, ip measured after 24 hrs; format: organism-based; details: in vivo
[32] = Toxicity in naive ICR mouse assessed as effect on water intake at 50 mg/kg, ip measured after 24 hrs; format: organism-based; details: in vivo

COc1cc(O)cc(CCc2cccc(O)c2)c1 [BATATASIN III]
inhibition in vivo at 50 mg/kg [1]: 69.9%
Activity [2]: Dde
Activity [3]: Active
Activity [4]: Active
Activity [5]: Active
Activity [6]: Active
Activity [7]: Active
Activity [8]: Active
Activity [9]: Toxic
Activity [10]: Toxic
Activity [11]: Dde
Activity [12]: Dde
Activity [13]: Non-Toxic
Activity [14]: Dde
Activity [15]: Dde
Activity [16]: Dde
Activity [17]: Dde
Activity [18]: Non-Toxic
Activity [19]: Non-Toxic
Activity [20]: Non-Toxic
Activity [21]: Non-Toxic
Activity [22]: Non-Toxic
Activity [23]: Non-Toxic
Activity [24]: Non-Toxic
Activity [25]: Non-Toxic
Activity [26]: Non-Toxic
Activity [27]: Non-Toxic
Activity [28]: Non-Toxic
Activity [29]: Non-Toxic
Activity [30]: Non-Toxic
Activity [31]: Non-Toxic
Activity [32]: Non-Toxic

From ChEMBL document CHEMBL5120901, “Batatasin III, a Constituent of Dendrobium scabrilingue, Improves Murine Pain-like Behaviors with a Favorable CNS Safety Profile” (J Nat Prod, 2022)
